US20210386704A1, “MDMA RESPONSE PREDICTION” (Universitätsspital Basel, priority 2020, published 2021)

Assays:
[1] = poor vs extensive/normal metabolizers; de la Torre et al., 2005; Schmid et al., 2016; cited from earlier work
[2] = tested on: healthy human subjects; assay: Pooled analysis: subjective response to MDMA (VAS, AMRS, 5D-ASC)
[3] = tested on: healthy human subjects; assay: Pooled analysis: autonomic response to MDMA (blood pressure, heart rate, body temperature; Emax)
[4] = Pooled analysis of ten placebo-controlled crossover studies: MDMA plasma concentration (AUC 0-6 h)

CNC(C)Cc1ccc2c(c1)OCO2 (racemic) [MDMA, (±)3,4-methylenedioxymethamphetamine]
MDMA blood plasma concentrations in CYP2D6 poor metabolizers [1]: higher MDMA blood plasma concentrations than extensive/normal metabolizers | Bad drug effect, relation to older age ([2]; LASSO model (FIG. 3)): higher bad drug effect | Strongest predictor of outcome effects after MDMA (plasma AUC, MAP increase, AMRS, VAS, 5D-ASC ratings) ([2]; LASSO model (FIG. 3)): dose per body weight is the strongest predictor | Sex as predictor of response ([2]; adjusted for dose and body weight (FIG. 2)): lost its predictor value | Effect of well-being (AMRS) before MDMA on response ([2]; dose-adjusted (FIG. 2)): no significant effect as predictor variable on the response to MDMA | Dread of ego dissolution and impaired control and cognition (5D-ASC) in subjects with higher neuroticism (NEO-FFI) and trait anxiety (STAI-T) ([2]; dose-adjusted (FIG. 2), both p<0.01 and both p<0.05): more likely to experience “dread of ego dissolution” and “impaired control and cognition” | Closeness (VAS), oceanic boundlessness and visionary restructuralization (5D-ASC), relation to openness to experience (NEO-FFI) ([2]; dose-adjusted (FIG. 2), p<0.05, p<0.05, p<0.01): positively correlated | Effect of past use of MDMA on response ([2]; past use within the range of 0-5 times (FIG. 2 and FIG. 3)): no significant effect on the response to MDMA | Good drug effect / positive effects, relation to dose ([2]; within range of doses tested (75 and 125 mg)): a high dose of MDMA (>75 mg) is needed to produce greater positive effects | Intensity of response at high dose of MDMA per body weight ([2]; within the 75-125 mg absolute dose range (FIG. 1)): more intense response to MDMA with more positive and more cardiostimulant effects | Heart rate increase, relation to older age ([3]; LASSO model (FIG. 3)): lower heart rate increase | Temperature increase, relation to older age ([3]; LASSO model (FIG. 3)): lower temperature increase | Heart rate, correlation with age ([3]; adjusted for dose per body weight (FIG. 2), p<0.05): inverse correlation between heart rate and age remained significant | MDMA plasma concentration, relation to genetically determined CYP2D6 activity ([4]; adjusted for dose per body weight (FIG. 2), p<0.01): still inversely correlated with the MDMA plasma concentration | MDMA concentrations and response in subjects with poor CYP2D6 activity ([4]; poor vs extensive CYP2D6 metabolizers (FIGS. 1 and 2)): higher MDMA concentrations and a stronger MDMA response compared with CYP2D6 extensive metabolizers | MDMA plasma AUC over 6 hours, women vs men ([4]; similar total doses, not accounting for body weight): women exhibit significantly higher MDMA plasma AUC than men
